Test results reported in PubChem BioAssay (NCI).
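In this assay, cells in 96-well plates receive the compound at five concentrations for 48 hours. Endpoints are linearly interpolated between the surrounding concentrations. TGI denotes the concentration required for complete inhibition of growth.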

What was measured:
Assay in all cases: NCI anticancer screen, dose series, 48 h
[1] = test system: CCRF-CEM leukemia
[2] = test system: HCT-15 colon
[3] = test system: HL-60(TB) leukemia
[4] = test system: MALME-3M melanoma
[5] = test system: OVCAR-5 ovarian
[6] = test system: RXF 393 renal
[7] = test system: SK-OV-3 ovarian
[8] = test system: SN12C renal
[9] = test system: SW-620 colon
[10] = test system: UACC-257 melanoma
[11] = test system: BT-549 breast

Row | Compound | TGI [1] [µM] | TGI [2] [µM] | TGI [3] [µM] | TGI [4] [µM] | TGI [5] [µM] | TGI [6] [µM] | TGI [7] [µM] | TGI [8] [µM] | TGI [9] [µM] | TGI [10] [µM] | TGI [11] [µM]
1 | CC(C)=CC1C(C(=O)O)C1(C)C (configuration not stated) | > 750 | > 750 | > 750 | > 750 | > 750 | > 750 | > 750 | > 750 | > 750 | > 750 | –
2 | Cc1cccc(N(CCC#N)S(=O)(=O)c2ccccc2)c1 | > 100 | – | > 100 | > 100 | > 100 | – | > 100 | > 100 | > 100 | > 100 | > 100
3 | COc1ccc(CNc2nc3ccc(C(F)(F)F)cc3nc2-c2ccccc2)cc1OC | > 100 | > 100 | > 100 | > 100 | > 100 | > 100 | > 100 | > 100 | > 100 | > 100 | –
4 | CCOc1ccc(N=C/C=C(\Cl)c2ccc3ccccc3c2)cc1 | – | 30.2 | 33.8 | 30.6 | 36.3 | 34.1 | 38.4 | 33.9 | 36.5 | 30.8 | 40.4
5 | CN(C)c1ccc(/C(Br)=C2\OC(=O)c3ccccc32)cc1 | > 100 | > 100 | > 100 | > 100 | > 100 | – | > 100 | > 100 | > 100 | > 100 | –
6 | O=C(CCc1ccc(O)cc1)c1c(O)cc(O)cc1OC1OC(CO)C(O)C(O)C1O (configuration not stated) | – | > 100 | – | > 100 | > 100 | – | > 100 | – | > 100 | > 100 | –
7 | N#CC(C#N)=C1CCCS(=O)(=O)c2ccccc21 | > 100 | > 100 | > 100 | – | > 100 | > 100 | > 100 | > 100 | > 100 | > 100 | > 100
8 | CC(=O)/C(=C/n1c(=S)sc2ccccc21)C(=O)Nc1ccccc1C | – | > 100 | > 100 | – | > 100 | > 100 | > 100 | > 100 | > 100 | > 100 | > 100
9 | c1ccc2c(c1)CCCN1CCc3ccccc3C21 (configuration not stated) | > 100 | > 100 | > 100 | > 100 | > 100 | – | > 100 | > 100 | > 100 | > 100 | > 100
10 | CC1=CC(=O)N(n2c(C)n[nH]c2=O)C1=O | > 100 | > 100 | – | > 100 | > 100 | > 100 | > 100 | > 100 | > 100 | > 100 | > 100
11 | O=c1c2cc(I)ccc2[nH]c(=S)n1Cc1ccccc1 | 23.1 | > 100 | 28.5 | – | > 100 | 78 | > 100 | > 100 | > 100 | > 100 | 44.6
12 | O=c1nc2c(c(-c3cccc(Cl)c3)[nH]1)COC/C2=C\c1cccc(Cl)c1 | > 100 | > 100 | – | – | > 100 | > 100 | > 100 | > 100 | > 100 | > 100 | > 100
13 | CCOC(=O)C(=O)N1C(C)=C(C(=O)OCC)CC(C(=O)OCC)=C1C | > 100 | > 100 | > 100 | > 100 | > 100 | > 100 | > 100 | > 100 | > 100 | > 100 | –
14 | O=C1C(Cl)N(c2ccccc2)C1c1c[nH]c2ccccc12 (configuration not stated) | > 100 | – | > 100 | > 100 | > 100 | > 100 | > 100 | > 100 | > 100 | > 100 | –
15 | Cc1nc2ccc([N+](=O)[O-])cc2c(=O)n1C(=S)Nc1cccc(Cl)c1 | 62.3 | 31 | 50.6 | 49.1 | > 100 | 40 | 71.8 | 51.4 | 53.3 | 41.2 | –
16 | COC(=O)C1CC(C=[N+](C)C)=C(SC)N1 (configuration not stated) | – | > 100 | – | > 100 | > 100 | > 100 | > 100 | – | > 100 | > 100 | > 100
17 | O=C(O)CNC(=O)c1ccc([As](=O)(O)O)cc1 | > 100 | > 100 | > 100 | > 100 | > 100 | > 100 | > 100 | > 100 | > 100 | – | > 100
18 | COC1C=CC23c4cc5c(cc4C(O)OC2CN(C)C3C1)OCO5 (configuration not stated) | 7.21 | – | 3.17 | 6.49 | 39.9 | – | – | 7.88 | 11.6 | 7.3 | –
19 | Cc1cc2cccc(Cl)c2nc1C(=O)c1ccccc1 | – | > 100 | – | > 100 | > 100 | > 100 | – | > 100 | > 100 | 66.9 | –
20 | C(=Nc1ccc(-c2nc3ccccc3s2)cc1)c1ccco1 | > 100 | > 100 | – | > 100 | > 100 | > 100 | > 100 | > 100 | > 100 | > 100 | > 100
21 | O=C1OC[C@@H]2Cc3c([nH]c4ccccc34)[C@@H](c3ccc(O)cc3)N12 | > 84.4 | > 100 | > 81.7 | 85.1 | > 100 | 64.3 | > 95.1 | > 89.7 | > 100 | 72.2 | –
22 | COc1cccc(C2c3cc4c(cc3OC(N3CCCC3)C2C)OCO4)c1OC (configuration not stated) | 16.9 | 16.9 | – | – | 17.9 | – | – | 14.5 | 18.8 | – | –
23 | C=CCCCC12CCCc3cccc(c31)NC2=O (configuration not stated) | > 100 | – | 48.7 | 30.2 | 43.5 | 42.8 | 45.3 | > 100 | 41.8 | 50.4 | –
